Assay results taken from patent US20190374627A1, “TARGET PEPTIDES FOR CANCER THERAPY AND DIAGNOSTICS” (priority 2016, published 2019).
Entries after “also recorded” stand apart in the source; their conditions may differ. Square brackets hold non-standard residues; d marks the D form. Ends that are not written are not given here. pS = N[C@@H](COP(=O)(O)O)C(=O)O

Legend:
[1] = system: expanded TIL / IHL cultures; test: ICS for MHC-I-pP reactivity of liver-derived lymphocyte cultures after unspecific rapid expansion protocol (REP); type: cell-based, human
[2] = system: expanded lymphocyte cultures from deceased donor livers, cirrhotic livers and HCC; test: ICS for MHC-I-pP reactivity of liver-derived lymphocyte cultures after phosphopeptide-specific expansion; type: cell-based, human
[3] = system: unexpanded lymphocyte cultures (CD8^+ T cells); test: ICS for MHC-I-pP reactivity of lymphocyte cultures without expansion (Table 23, No Expansion)
CD8^+ T cells (PBMCs) [4] = test: Ex vivo ICS of PBMCs after stimulation for 4 hours with the peptide; type: cell-based, human; details: PBMCs of a patient with hereditary hemochromatosis, 4 hours stimulation
CD8^+ T cells (PBMCs) [5] = test: Intracellular cytokine staining (ICS) of PBMCs after 7 days of stimulation with MHC-I-pP (healthy donors, HH patients); type: cell-based, human
Method in brief: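 PBMCs or liver lymphocytes from HLA-A*0201-positive healthy donors and hereditary hemochromatosis patients were stimulated for 7 days with HLA-A*0201-restricted phosphopeptides and no added cytokines. After exclusion of doublets and dead cells with a fixable viability dye, CD3^+CD8^+ cells were analysed by intracellular staining for IFN-γ and TNF-α, plus CD107a where needed.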

Substance: RVAsPTSGV: IRS2 phosphopeptide, HLA-A*0201 (RVA[pS]PTSGV; listed as Homo sapiens)
- Reactive CD8^+ T cells, Non-specific Expansion, Do2 ([1]; Do2): 0 (<0.25% reactive CD8^-+ T cells)
- Reactive CD8^+ T cells, Non-specific Expansion, Do4 ([1]; Do4): 0 (<0.25% reactive CD8^-+ T cells)
- Reactive CD8^+ T cells, Non-specific Expansion, HH6 ([1]; HH6): 0 (<0.25% reactive CD8^-+ T cells)
- Reactive CD8^+ T cells, pP-specific Expansion, Do2 ([2]; pP-specific Expansion, Do2): 0 (<0.25% reactive CD8^-+ T cells)
- Reactive CD8^+ T cells, pP-specific Expansion, Do4 ([2]; pP-specific Expansion, Do4): 2 (2.5-5.0% reactive CD8^-+ T cells)
- Reactive CD8^+ T cells, pP-specific Expansion, HH6 ([2]; pP-specific Expansion, HH6): 0 (<0.25% reactive CD8^-+ T cells)
- ppCTL response, Deceased Donor Liver Do 2 ([2]; pP-specifically expanded culture, Deceased Donor Liver Do 2): 0 (<0.25% reactive CD8-+ T cells)
- ppCTL response, Deceased Donor Liver Do 3 ([2]; pP-specifically expanded culture, Deceased Donor Liver Do 3): 0 (<0.25% reactive CD8-+ T cells)
- ppCTL response, Deceased Donor Liver Do 4 ([2]; pP-specifically expanded culture, Deceased Donor Liver Do 4): 2 (2.5-5.0% reactive CD8-+ T cells)
- ppCTL response, Deceased Donor Liver Do 6 ([2]; pP-specifically expanded culture, Deceased Donor Liver Do 6): 1 (0.25-2.5% reactive CD8-+ T cells)
- ppCTL response, End-stage Liver Cirrhosis IHL 11 ([2]; pP-specifically expanded culture, End-stage Liver Cirrhosis IHL 11): 0 (<0.25% reactive CD8-+ T cells)
- ppCTL response, End-stage Liver Cirrhosis IHL 12 ([2]; pP-specifically expanded culture, End-stage Liver Cirrhosis IHL 12): 0 (<0.25% reactive CD8-+ T cells)
- ppCTL response, End-stage Liver Cirrhosis IHL 13 ([2]; pP-specifically expanded culture, End-stage Liver Cirrhosis IHL 13): 0 (<0.25% reactive CD8-+ T cells)
- ppCTL response, End-stage Liver Cirrhosis IHL 15 ([2]; pP-specifically expanded culture, End-stage Liver Cirrhosis IHL 15): 0 (<0.25% reactive CD8-+ T cells)
- ppCTL response, HCC Distal HCC 1 ([2]; pP-specifically expanded culture, HCC 1 Distal): 0 (<0.25% reactive CD8-+ T cells)
- ppCTL response, HCC Tumor HCC 1 ([2]; pP-specifically expanded culture, HCC 1 Tumor): 0 (<0.25% reactive CD8-+ T cells)
- ppCTL response, HCC Distal HCC 4 ([2]; pP-specifically expanded culture, HCC 4 Distal): 0 (<0.25% reactive CD8-+ T cells)
- ppCTL response, HCC Distal HCC 9 ([2]; pP-specifically expanded culture, HCC 9 Distal): 0 (<0.25% reactive CD8-+ T cells)
- ppCTL response, HCC Tumor HCC 9 ([2]; pP-specifically expanded culture, HCC 9 Tumor): 0 (<0.25% reactive CD8-+ T cells)
- ppCTL response, HCC Distal HCC 12 ([2]; pP-specifically expanded culture, HCC 12 Distal): 0 (<0.25% reactive CD8-+ T cells)
- Reactive CD8^+ T cells, No Expansion, Do4 ([3]; Do4): 3 (5-7.5% reactive CD8^-+ T cells)
- Reactive CD8^+ T cells, No Expansion, HH6 ([3]; HH6): 0 (<0.25% reactive CD8^-+ T cells)
- ex vivo CD8^+ T cell response (CD8^+ T cells (PBMCs) [4]): evident ex vivo; also recorded: ex vivo CD8^+ T cell response
- Reactive CD8^+ T cell population, HH2 (CD8^+ T cells (PBMCs) [5]; HH patient HH2): 0 (<0.25% reactive CD8^-+ T cells)
- Reactive CD8^+ T cell population, HH3 (CD8^+ T cells (PBMCs) [5]; HH patient HH3): 0 (<0.25% reactive CD8^-+ T cells)
- Reactive CD8^+ T cell population, HH6 (CD8^+ T cells (PBMCs) [5]; HH patient HH6): 0 (<0.25% reactive CD8^-+ T cells)
- Reactive CD8^+ T cell population, HH8 (CD8^+ T cells (PBMCs) [5]; HH patient HH8): 0 (<0.25% reactive CD8^-+ T cells)
- Reactive CD8^+ T cell population, HH10 (CD8^+ T cells (PBMCs) [5]; HH patient HH10): 2 (2.5-5.0% reactive CD8^-+ T cells)
- Reactive CD8^+ T cell population, HH11 (CD8^+ T cells (PBMCs) [5]; HH patient HH11): 0 (<0.25% reactive CD8^-+ T cells)
- Reactive CD8^+ T cell population, HD1 (CD8^+ T cells (PBMCs) [5]; Healthy donor HD1): 0 (<0.25% reactive CD8^-+ T cells)
- Reactive CD8^+ T cell population, HD2 (CD8^+ T cells (PBMCs) [5]; Healthy donor HD2): 0 (<0.25% reactive CD8^-+ T cells)
- Reactive CD8^+ T cell population, HD3 (CD8^+ T cells (PBMCs) [5]; Healthy donor HD3): 0 (<0.25% reactive CD8^-+ T cells)
- Reactive CD8^+ T cell population, HD4 (CD8^+ T cells (PBMCs) [5]; Healthy donor HD4): 0 (<0.25% reactive CD8^-+ T cells)
- Reactive CD8^+ T cell population, HD5 (CD8^+ T cells (PBMCs) [5]; Healthy donor HD5): 0 (<0.25% reactive CD8^-+ T cells)
